Measurements as given in ChEMBL document CHEMBL4507276 (2021).

Key:
[1] = target: Cyclin-dependent kinase-like 1 (Homo sapiens) (UniProt Q00532); conditions: Compound concentration 1000.0 nM
[2] = target: Histamine H4 receptor (Homo sapiens) (UniProt Q9H3N8); assay: H4/H AG Cerep selectivity data (BI); conditions: filed as agonist, Compound concentration 20.0 uM
[3] = target: T1, Ephrin type-B receptor 3 (Homo sapiens) (UniProt P54753); assay: EPHB3 Invitrogen selectivity data (BI); conditions: Compound concentration 3.0 uM
T1 sequence (whole entry): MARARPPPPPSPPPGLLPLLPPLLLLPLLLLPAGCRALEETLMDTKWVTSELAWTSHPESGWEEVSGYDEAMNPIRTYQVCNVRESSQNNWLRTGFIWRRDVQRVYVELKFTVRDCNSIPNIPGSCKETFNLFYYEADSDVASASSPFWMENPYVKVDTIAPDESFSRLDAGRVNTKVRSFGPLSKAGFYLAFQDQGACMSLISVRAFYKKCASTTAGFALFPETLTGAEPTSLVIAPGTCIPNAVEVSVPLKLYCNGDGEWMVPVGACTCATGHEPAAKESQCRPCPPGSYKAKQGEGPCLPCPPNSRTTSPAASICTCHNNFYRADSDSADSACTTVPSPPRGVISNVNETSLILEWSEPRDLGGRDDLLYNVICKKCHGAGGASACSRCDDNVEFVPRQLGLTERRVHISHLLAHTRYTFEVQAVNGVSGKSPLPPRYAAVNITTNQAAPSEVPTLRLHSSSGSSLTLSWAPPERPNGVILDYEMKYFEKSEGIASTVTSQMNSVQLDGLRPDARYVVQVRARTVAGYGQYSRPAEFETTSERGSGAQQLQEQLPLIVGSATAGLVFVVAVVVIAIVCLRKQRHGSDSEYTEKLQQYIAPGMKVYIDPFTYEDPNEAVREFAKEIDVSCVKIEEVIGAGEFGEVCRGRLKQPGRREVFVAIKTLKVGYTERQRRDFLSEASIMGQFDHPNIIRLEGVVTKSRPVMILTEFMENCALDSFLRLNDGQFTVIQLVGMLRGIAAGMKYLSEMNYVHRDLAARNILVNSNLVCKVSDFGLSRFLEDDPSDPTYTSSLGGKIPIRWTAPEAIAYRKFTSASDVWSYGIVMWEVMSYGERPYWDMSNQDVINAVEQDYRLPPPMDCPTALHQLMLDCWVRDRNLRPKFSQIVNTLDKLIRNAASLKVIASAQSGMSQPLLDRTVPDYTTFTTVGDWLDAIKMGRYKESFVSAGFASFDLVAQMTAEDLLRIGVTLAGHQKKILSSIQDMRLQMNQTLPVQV

[4] = target: LIM domain kinase 2 (Homo sapiens) (UniProt P53671); assay: LIMK2 Invitrogen selectivity data (BI); conditions: Compound concentration 3.0 uM
[5] = target: Mitogen-activated protein kinase kinase kinase kinase 5 (Homo sapiens) (UniProt Q9Y4K4); assay: MAP4K5 Invitrogen selectivity data (BI); conditions: Compound concentration 3.0 uM
[6] = target: T2, 5-hydroxytryptamine receptor 1A (Homo sapiens) (UniProt P08908); assay: 5HT1A/HU Eurofins-Panlabs selectivity data (BI); conditions: Compound concentration 10.0 uM
T2 sequence (whole entry): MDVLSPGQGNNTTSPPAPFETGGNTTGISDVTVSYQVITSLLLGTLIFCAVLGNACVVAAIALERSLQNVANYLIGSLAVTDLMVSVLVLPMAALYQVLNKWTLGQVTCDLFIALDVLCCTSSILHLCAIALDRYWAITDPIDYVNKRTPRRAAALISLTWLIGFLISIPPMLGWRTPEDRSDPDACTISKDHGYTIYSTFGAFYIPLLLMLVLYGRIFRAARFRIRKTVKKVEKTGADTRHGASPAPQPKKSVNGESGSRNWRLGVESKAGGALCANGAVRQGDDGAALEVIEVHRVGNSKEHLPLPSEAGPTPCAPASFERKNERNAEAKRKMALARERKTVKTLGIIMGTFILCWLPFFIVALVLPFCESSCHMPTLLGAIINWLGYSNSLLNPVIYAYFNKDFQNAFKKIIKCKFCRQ

[7] = target: Serine/threonine-protein kinase N1 (Homo sapiens) (UniProt Q16512); assay: PKN1 Invitrogen selectivity data (BI); conditions: Compound concentration 3.0 uM
[8] = target: cGMP-dependent 3',5'-cyclic phosphodiesterase (Homo sapiens) (UniProt O00408); assay: PDE2A1 Cerep selectivity data (BI); conditions: Compound concentration 20.0 uM
[9] = target: T3, Serine/threonine-protein kinase Sgk1 (Homo sapiens) (UniProt O00141); assay: SGK Invitrogen selectivity data (BI); conditions: Compound concentration 3.0 uM
T3 sequence (whole entry): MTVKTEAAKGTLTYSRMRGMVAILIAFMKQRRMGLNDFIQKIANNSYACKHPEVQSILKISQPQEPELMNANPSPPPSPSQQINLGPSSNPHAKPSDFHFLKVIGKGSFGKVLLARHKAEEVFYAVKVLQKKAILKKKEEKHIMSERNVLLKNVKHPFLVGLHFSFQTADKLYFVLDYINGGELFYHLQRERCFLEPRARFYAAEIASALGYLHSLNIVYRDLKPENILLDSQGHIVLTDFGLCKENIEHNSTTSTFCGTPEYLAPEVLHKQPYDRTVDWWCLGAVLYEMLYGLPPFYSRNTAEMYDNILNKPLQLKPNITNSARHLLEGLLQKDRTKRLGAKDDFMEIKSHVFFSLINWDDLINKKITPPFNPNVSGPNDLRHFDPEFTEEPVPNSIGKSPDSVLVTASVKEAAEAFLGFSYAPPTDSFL

[10] = target: SRSF protein kinase 1 (Homo sapiens) (UniProt Q96SB4); assay: SRPK1 Invitrogen selectivity data (BI); conditions: Compound concentration 3.0 uM
Sequence of SRSF protein kinase 1 (Homo sapiens) (Q96SB4 whole entry): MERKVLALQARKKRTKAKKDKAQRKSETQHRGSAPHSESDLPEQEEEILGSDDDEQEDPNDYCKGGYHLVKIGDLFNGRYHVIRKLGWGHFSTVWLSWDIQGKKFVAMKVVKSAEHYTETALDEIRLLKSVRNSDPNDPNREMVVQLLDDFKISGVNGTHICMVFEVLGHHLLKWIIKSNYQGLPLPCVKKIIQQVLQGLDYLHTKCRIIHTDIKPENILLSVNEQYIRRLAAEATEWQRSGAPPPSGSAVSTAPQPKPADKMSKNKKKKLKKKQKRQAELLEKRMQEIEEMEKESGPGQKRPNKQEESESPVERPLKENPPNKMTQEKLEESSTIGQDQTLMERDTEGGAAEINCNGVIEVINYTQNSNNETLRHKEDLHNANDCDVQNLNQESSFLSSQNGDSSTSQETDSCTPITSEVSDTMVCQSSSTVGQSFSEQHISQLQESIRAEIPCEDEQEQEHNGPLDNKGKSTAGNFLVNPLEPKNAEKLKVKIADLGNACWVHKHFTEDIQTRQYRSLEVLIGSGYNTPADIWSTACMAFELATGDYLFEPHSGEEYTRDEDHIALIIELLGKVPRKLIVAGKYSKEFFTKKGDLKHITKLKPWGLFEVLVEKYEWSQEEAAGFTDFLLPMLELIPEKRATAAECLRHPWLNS

[11] = target: Tyrosine-protein kinase ABL1 (Homo sapiens) (UniProt P00519); assay: ABL_CE Cerep selectivity data (BI); conditions: Compound concentration 20.0 uM
Sequence of Tyrosine-protein kinase ABL1 (Homo sapiens) (P00519 whole entry): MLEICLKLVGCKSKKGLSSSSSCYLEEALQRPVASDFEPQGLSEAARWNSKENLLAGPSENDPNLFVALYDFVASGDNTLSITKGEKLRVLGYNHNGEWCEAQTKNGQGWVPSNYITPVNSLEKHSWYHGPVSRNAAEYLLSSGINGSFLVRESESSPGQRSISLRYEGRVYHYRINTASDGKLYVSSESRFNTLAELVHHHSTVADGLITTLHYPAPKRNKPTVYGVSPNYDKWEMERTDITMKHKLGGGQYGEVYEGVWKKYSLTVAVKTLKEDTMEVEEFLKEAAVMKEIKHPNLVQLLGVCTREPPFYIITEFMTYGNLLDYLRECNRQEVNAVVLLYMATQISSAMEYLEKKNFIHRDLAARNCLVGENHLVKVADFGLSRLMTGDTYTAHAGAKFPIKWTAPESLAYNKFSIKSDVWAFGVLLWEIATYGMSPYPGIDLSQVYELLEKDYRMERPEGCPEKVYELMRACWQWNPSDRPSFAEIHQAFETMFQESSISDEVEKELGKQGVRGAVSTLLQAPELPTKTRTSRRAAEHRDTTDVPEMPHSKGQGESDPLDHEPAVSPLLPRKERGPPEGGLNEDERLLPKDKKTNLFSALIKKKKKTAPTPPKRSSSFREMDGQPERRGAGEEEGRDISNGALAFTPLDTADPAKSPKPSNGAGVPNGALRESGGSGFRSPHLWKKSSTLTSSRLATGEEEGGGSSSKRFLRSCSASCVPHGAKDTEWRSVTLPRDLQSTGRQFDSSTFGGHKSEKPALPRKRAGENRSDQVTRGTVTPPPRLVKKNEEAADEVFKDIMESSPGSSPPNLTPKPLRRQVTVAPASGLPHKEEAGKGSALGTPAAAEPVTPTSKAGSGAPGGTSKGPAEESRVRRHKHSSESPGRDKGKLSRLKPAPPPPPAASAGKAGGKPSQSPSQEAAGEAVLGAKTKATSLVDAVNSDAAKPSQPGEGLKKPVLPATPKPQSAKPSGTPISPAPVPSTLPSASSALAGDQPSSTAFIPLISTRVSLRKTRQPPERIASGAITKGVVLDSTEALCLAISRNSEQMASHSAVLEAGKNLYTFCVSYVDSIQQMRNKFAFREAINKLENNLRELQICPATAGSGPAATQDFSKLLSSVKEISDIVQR

[12] = system: Platelet-derived growth factor receptor alpha (Homo sapiens), P16234 [T674I]; assay: PDGFRA T674I Invitrogen selectivity data (BI); conditions: Compound concentration 3.0 uM
[13] = target: Muscarinic acetylcholine receptor M3 (Homo sapiens) (UniProt P20309); assay: M3/H Cerep selectivity data (BI); conditions: Compound concentration 20.0 uM
Sequence of Muscarinic acetylcholine receptor M3 (Homo sapiens) (P20309 whole entry, looked up): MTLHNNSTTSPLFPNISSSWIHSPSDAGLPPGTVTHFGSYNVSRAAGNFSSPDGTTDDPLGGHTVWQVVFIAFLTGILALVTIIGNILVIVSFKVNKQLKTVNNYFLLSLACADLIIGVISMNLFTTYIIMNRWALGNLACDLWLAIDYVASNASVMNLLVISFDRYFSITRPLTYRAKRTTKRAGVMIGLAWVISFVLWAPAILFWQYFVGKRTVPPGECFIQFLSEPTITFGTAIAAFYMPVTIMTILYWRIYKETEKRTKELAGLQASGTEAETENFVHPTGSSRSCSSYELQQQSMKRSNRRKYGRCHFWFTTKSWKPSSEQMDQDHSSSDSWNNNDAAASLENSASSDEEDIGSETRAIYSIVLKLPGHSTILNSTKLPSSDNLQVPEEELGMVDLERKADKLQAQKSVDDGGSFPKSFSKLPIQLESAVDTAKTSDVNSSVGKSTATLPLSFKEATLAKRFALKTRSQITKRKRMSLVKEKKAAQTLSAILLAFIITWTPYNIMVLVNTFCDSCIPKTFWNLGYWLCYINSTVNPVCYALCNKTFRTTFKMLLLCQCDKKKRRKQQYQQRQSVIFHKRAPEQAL

[14] = target: Adenosine receptor A1 (Homo sapiens) (UniProt P30542); assay: A1H_AGON Cerep selectivity data (BI); conditions: filed as agonist, Compound concentration 20.0 uM
Sequence of Adenosine receptor A1 (Homo sapiens) (P30542 whole entry): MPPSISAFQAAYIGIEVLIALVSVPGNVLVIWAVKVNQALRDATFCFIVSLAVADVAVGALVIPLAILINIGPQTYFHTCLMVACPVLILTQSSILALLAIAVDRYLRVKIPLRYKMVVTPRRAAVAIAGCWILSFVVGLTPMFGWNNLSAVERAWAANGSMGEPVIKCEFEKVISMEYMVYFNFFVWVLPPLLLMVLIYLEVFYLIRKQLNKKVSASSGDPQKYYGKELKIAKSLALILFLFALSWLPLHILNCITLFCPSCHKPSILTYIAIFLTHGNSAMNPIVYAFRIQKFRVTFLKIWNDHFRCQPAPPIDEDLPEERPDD

[15] = target: Protein kinase C epsilon type (Homo sapiens) (UniProt Q02156); assay: PRKCE Invitrogen selectivity data (BI); conditions: Compound concentration 3.0 uM
Sequence of Protein kinase C epsilon type (Homo sapiens) (Q02156 whole entry): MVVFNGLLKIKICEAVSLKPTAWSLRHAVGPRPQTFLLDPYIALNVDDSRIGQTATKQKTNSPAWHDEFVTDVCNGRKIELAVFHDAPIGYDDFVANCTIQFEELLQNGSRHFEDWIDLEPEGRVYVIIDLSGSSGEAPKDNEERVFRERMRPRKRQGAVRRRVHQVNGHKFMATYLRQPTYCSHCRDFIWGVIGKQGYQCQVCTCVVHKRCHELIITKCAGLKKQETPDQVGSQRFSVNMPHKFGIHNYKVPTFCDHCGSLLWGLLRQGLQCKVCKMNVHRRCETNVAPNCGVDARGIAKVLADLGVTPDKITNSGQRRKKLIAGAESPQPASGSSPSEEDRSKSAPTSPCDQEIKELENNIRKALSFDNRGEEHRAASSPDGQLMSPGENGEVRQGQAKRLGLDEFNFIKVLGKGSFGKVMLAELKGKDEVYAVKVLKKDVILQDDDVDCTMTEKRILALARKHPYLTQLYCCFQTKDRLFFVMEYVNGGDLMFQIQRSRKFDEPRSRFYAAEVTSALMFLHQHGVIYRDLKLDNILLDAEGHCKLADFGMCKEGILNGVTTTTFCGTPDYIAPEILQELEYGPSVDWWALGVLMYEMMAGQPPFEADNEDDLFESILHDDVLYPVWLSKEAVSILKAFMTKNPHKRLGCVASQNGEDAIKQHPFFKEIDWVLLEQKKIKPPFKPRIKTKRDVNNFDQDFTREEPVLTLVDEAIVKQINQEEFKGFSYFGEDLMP

[16] = target: Cyclin-dependent kinase 5/CDK5 activator 1 (Homo sapiens) (UniProt Q00535+Q15078); assay: CDK5/P35 Invitrogen selectivity data (BI); assay type: protein-complex assay; conditions: Compound concentration 3.0 uM
[17] = target: Cysteinyl leukotriene receptor 1 (Homo sapiens) (UniProt Q9Y271); assay: LTD4/H Cerep selectivity data (BI); conditions: Compound concentration 20.0 uM
Sequence of Cysteinyl leukotriene receptor 1 (Homo sapiens) (Q9Y271 whole entry): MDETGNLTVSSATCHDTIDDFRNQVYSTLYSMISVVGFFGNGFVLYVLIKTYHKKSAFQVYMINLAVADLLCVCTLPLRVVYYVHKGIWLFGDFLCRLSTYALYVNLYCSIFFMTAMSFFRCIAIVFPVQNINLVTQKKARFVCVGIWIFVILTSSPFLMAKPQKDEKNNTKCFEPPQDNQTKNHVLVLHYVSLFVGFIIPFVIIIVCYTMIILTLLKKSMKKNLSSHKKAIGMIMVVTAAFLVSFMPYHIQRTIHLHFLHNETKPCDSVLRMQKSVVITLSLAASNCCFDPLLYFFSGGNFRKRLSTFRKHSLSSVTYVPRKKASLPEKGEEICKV

[18] = target: Alpha-1B adrenergic receptor (Rattus norvegicus) (UniProt P15823); assay: ALPHA1B/R Eurofins-Panlabs selectivity data (BI); conditions: Compound concentration 10.0 uM
Sequence of Alpha-1B adrenergic receptor (Rattus norvegicus) (P15823 whole entry, looked up): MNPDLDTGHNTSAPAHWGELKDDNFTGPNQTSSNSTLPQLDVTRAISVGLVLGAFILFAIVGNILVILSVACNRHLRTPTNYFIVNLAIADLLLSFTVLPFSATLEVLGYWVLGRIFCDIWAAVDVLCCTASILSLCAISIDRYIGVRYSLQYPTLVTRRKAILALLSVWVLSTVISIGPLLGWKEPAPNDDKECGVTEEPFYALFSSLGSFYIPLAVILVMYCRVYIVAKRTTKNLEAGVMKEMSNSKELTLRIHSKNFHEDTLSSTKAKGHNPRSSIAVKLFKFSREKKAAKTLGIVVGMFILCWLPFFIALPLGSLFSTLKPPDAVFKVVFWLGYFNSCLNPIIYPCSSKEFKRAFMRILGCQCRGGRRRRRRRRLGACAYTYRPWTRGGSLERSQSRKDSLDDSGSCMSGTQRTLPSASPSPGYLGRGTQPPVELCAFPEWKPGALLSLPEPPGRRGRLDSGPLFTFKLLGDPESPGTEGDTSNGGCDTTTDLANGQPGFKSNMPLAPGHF

[19] = target: Glutamate NMDA receptor (Rattus norvegicus) (UniProt P35439+Q00959+Q00960+Q00961+Q62645+Q8VHN2+Q9R1M7); assay: NMDAAGSI/RA Eurofins-Panlabs selectivity data (BI); assay type: protein-complex assay; conditions: filed as agonist, Compound concentration 10.0 uM

Sequence of Histamine H4 receptor (Homo sapiens) (Q9H3N8 whole entry): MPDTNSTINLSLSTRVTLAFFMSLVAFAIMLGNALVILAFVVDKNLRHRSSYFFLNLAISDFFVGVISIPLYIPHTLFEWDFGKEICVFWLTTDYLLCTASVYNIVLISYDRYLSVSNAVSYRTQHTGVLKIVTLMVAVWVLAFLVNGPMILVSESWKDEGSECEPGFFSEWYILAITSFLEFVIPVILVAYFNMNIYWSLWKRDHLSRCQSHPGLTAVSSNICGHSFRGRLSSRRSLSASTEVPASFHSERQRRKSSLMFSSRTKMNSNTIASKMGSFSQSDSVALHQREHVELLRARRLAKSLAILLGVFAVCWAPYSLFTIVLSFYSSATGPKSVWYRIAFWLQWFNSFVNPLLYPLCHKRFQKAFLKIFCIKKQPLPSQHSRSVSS

| SMILES | residual activity [1] [%] | residual activity [2] [%] | residual activity [3] [%] | residual activity [4] [%] | residual activity [5] [%] | residual activity [6] [%] | residual activity [7] [%] | residual activity [8] [%] | residual activity [9] [%] | residual activity [10] [%] | residual activity [11] [%] | residual activity [12] [%] | residual activity [13] [%] | residual activity [14] [%] | residual activity [15] [%] | residual activity [16] [%] | residual activity [17] [%] | residual activity [18] [%] | residual activity [19] [%] |
| --- | --- | --- | --- | --- | --- | --- | --- | --- | --- | --- | --- | --- | --- | --- | --- | --- | --- | --- | --- |
| CN(C)C(=O)Cn1cc(-c2nc(C3(c4ccc(-c5cnc(N)nc5)cc4)CC3)no2)cn1 [BI 0153] | 100 | – | – | – | – | – | – | – | – | – | – | – | – | – | – | – | – | – | – |
| CN(C)C(=O)Cn1cc(-c2nc([C@@](C)(c3ccc(-c4cnc(N)nc4)cc3)C3CC3)no2)cn1 [BI 665915] | – | 109 | 97 | 89 | 93 | 127 | 98.5 | 97 | 99 | 97.5 | 33 | 87 | 83 | 81 | 86.5 | 100 | 101 | 96 | 102 |
